# Laboratory results as given in patent US20250188123A1, “PROTEASE INHIBITORS” (Regents of the University of Minnesota, priority 2022, published 2025).
# Molecular target: T1, Human recombinant Casp7 (Homo sapiens, UniProt P55210)
# T1 construct: purchased BioVision (Milpitas/CA, USA)
# T1 sequence (P55210 1-303): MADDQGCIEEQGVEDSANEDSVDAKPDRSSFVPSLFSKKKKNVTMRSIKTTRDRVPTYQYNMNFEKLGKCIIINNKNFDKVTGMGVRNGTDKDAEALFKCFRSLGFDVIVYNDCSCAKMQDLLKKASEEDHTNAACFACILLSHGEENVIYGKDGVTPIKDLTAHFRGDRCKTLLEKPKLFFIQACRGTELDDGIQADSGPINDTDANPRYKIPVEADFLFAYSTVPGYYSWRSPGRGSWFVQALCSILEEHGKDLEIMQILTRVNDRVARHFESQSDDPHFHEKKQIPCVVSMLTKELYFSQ
# Experiment: In vitro caspase panel assay, Casp7
# Assay type: biochemical
# Details: Casp2 over Casp7, caspase panel
# Text: Human recombinant Casp1, 6, 7, and 9 were purchased from BioVision (Milpitas/CA, USA). AFC fluorogenic substrates and control peptides (AcYVAD-CHO, AcVDVAD-CHO, AcDEVD-CHO, AcVEID-CHO, and AcLEHD-CHO) were purchased from Bachem (Torrance/CA, USA). The pET23b vector encoding human caspase-3 was a gift of Dr. Michelle Arkin at University of California, San Francisco. Expression and purification of Casp3 was guided by previously described protocols (Denault J-B, Salvesen G S., Current Protocols in Protein Science, 2002, 30(1), 21.13. 1-21.13. 15). Briefly, the plasmid was transformed into E. coli Rosetta 2 pLyss DE3 cells that were cultured at 1 L scale in shake flasks. […] The typical yield for the expression, isolation, and purification was approximately 3 mg/L. The DNA encoding human caspase-2 (hCASP2, amino acids 170-452, free of the N-terminal caspase activation and recruitment domain) open reading frame (ORF) was amplified via polymerase chain reaction (PCR) from full-length hCASP2 cDNA (Origene, Rockville, MD; Cat #SC321316) using following primers: forward, 5′-[…]-3′; reverse, 5′-[…]-3′. […] Proteins were stored in 1× phosphate-buffered saline (pH 7.4) at 10 mg/mL (concentration determined using a BCA assay (Thermo Fisher Scientific)), −80° C. until further use. […]
compound,measurement,value
"Cc1ccc2c(c1)CCN(C(=O)[C@@H](NC(=O)[C@H](CCCC(=O)O)NC(=O)C1Cc3ccccc3N1)C(C)C)[C@@H]2C(=O)N[C@H](C#N)CC(=O)O (stereo partly drawn) [Compound 1, (8)-6-(((S)-1-((8)-1-(((S)-2-carboxy-1-cyanoethyl)carbamoyl)-6-methyl-3,4-dihydroisoquinolin-2(1H)-yl)-3-methyl-1-oxobutan-2-yl)amino)-5-((S)-indoline-2-carboxamido)-6-oxohexanoic acid]",selective versus Casp7,> 2000 fold
